Assay results as given in patent publication EP0009325A1, “Erythritol cointaining anti-caries compositions” (PFIZER INC., priority 1978, dated 1980).
Read-outs that look alike come from different tables or passages of the source.

Tests used:
dextran-sucrase (DSU) = experiment: Dextran-sucrase (DSU) activity of S. mutans; format: cell-based, Streptococcus mutans; conditions: 0.7% concentration; for dextran-sucrase (DSU) activity: columns 4-8 of Table I
Source text: (§1) All compounds used in the test were in 0.7% concentration. The same concentrations were used to determine acid production in a salivary system. Streptococcus mutans strain GS-5, a human cariogenic strain, was used in all cases except the salivary test system in which the endogenous flora was used.
The next six columns refer to certain effects on the metabolism of the bacteria. Columns 4-8 represent measures of the activity of an enzyme (or group of enzymes) called dextran-sucrase (DSU) which is one of the principle sources of the cariogenicity of this organism. DSU converts dietary sugar into polymers which are a major ingredient of cariogenic dental plaque. Such plaque is an accumulation of these polymers, playing an essential role in caries formation and periodontal disease. Therefore, a reduction in plaque formation by means of a reduction'in DSU activity is a desired effect. In particular, a reduction in "mean specific DSU activity" - that is, amount of activity per bacterial cell - is desired since that would imply a real effect on the organisms' metabolism instead of merely a reduction in the number of cells. […] Erythritol, however, is the best in the critical measure "DSU mean specific activity (column 8). In column 9, lactic acid production is measured. Lactic acid, produced by cariogenic bacteria in response to ingestion of a meal, can increase acidity enough to dissolve tooth mineral and initiate caries. Therefore, reduction in lactic acid production is desirable. […] Finally, in the last column (10) are measures of the effect on the pH of natural saliva. In this case, the natural mixed population of bacteria is used instead of a pure culture of one strain as in the previous columns. A positive number (pH increase, corresponding to reduced acidity) is the desired result.

[1] = humans; cited from earlier work
[2] = tested on: Streptococcus mutans strain GS-5; experiment: Growth of S. mutans GS-5 in nutrient medium (Klett optical density, doubling time, final pH); format: cell-based; conditions: 0.7% concentration; 37°C; columns 1-3 of Table I
Procedure: as §1
Klett tubes containing a tryticase-soy-yeast- cysteine nutrient and fitted with septum caps werg flushed with nitrogen gas and preincubated 30 minutes at 37°C using standard sterile technicuies, then in- noculated with a 2% innoculum of a suspension of S. mutans GS-5 cells in phosphate buffer. These were then incubated at 37°C. Optical density was measured by Klett readings (red filter) at half hour intervals.
The first three columns in the table refer to effects of the compounds on the growth characteristics of a cariogenic strain of the bacteria Streptococcus mutans. Reduction of total growth (lowered final Klett), reduction of growth rate (increase in doubling time) and reduction of acid produced (increase in final pH) are the effects desired.

[3] = cited from earlier work
[4] = tested on: Streptococcus mutans strain GS-5; experiment: Lactic acid production (Sigma kit, NADH absorbance); format: cell-based; conditions: 0.7% concentration; relative to "no compound" control; column 9 of Table I
Procedure: as §1
Lactic acid production was measured using the Sigma Kit for determination of lactic acid. This procedure measures the amount of lactic acid by the following reaction: [drawing 1] NAD is originally present-in excess and the increase absorbance of […] due to NADH formation becomes a measure of lactic acid originally present.
(§2) The next six columns refer to certain effects on the metabolism of the bacteria. Columns 4-8 represent measures of the activity of an enzyme (or group of enzymes) called dextran-sucrase (DSU) which is one of the principle sources of the cariogenicity of this organism. DSU converts dietary sugar into polymers which are a major ingredient of cariogenic dental plaque. Such plaque is an accumulation of these polymers, playing an essential role in caries formation and periodontal disease. Therefore, a reduction in plaque formation by means of a reduction'in DSU activity is a desired effect. […] In column 9, lactic acid production is measured. […]

endogenous flora = experiment: Salivary test system: pH change of pooled saliva; format: cell-based, human saliva; conditions: final concentration 0.7%; anaerobic, 37°C, four hours; column 10 of Table I
Procedure: as §1
For the salivary test system, saliva was pooled from volunteers who had fasted three hours and the pH of the pooled saliva was noted. 4.95 ml of pool saliva was aseptically transferred to a series of sterile test tubes. […] of each compound were prepared and sterilized. 0.05 ml of each was aseptically added to the test tube of saliva to give a final concentration of 0.7%. The test tubes were incubated anaerobically ! at 37°C for four hours. The pH of each was then measured.
as §2, with “disease.” for “disease. Therefore, a reduction in plaque formation by means of a reduction'in DSU activity is a desired effect.”

[5] = tested on: enzymes responsible for dental caries formation; conditions: cited from earlier work
[6] = cited from earlier work; remark: listed apart in the source
dental caries [7] = conditions: cited from earlier work
dental caries [8] = conditions: in diet, man; cited from earlier work
dental caries [9] = conditions: compared with mannitol or sorbitol; cited from earlier work

| Compound | DSU mean specific activity (dextran-sucrase (DSU); activity per bacterial cell, column 8 of Table I) | dextran-sucrase (DSU) activity (dextran-sucrase (DSU)) | metabolism after oral ingestion [1] | growth characteristics: total growth (final Klett), growth rate (doubling time), acid produced (final pH) [2] | saturated solution in water [3] | lactic acid production [4] | effect on the pH of natural saliva (endogenous flora) | formation of enzymes responsible for dental caries formation [5] | diarrhea ([6]; rat, in vivo) | drinking water intake (dental caries [7]; rat, in vivo) | diarrhea ([6]; rats) | drinking water intake (dental caries [7]; rats) | preventing dental caries (dental caries [7]; rats) | incidence of dental caries (dental caries [8]) | reducing the incidence of dental caries (dental caries [9]) |
| --- | --- | --- | --- | --- | --- | --- | --- | --- | --- | --- | --- | --- | --- | --- | --- |
| OC[C@@H](O)[C@@H](O)CO [erythritol] | the best | superior to the other substances tested | not significantly metabolized | closely following | about 38 % w/w | only substance which reduced lactic acid | best substance in the test | – | – | – | – | – | – | – | – |
| OC[C@@H](O)[C@@H](O)[C@H](O)[C@H](O)CO [mannitol] | – | – | – | – | – | – | – | retarded | – | – | – | – | – | – | – |
| OC[C@@H](O)[C@@H](O)[C@H](O)[C@@H](O)CO [sorbitol] | – | – | – | – | – | – | – | retarded | caused diarrhea | increased drinking water intake | – | – | – | – | – |
| OC[C@@H](O)[C@H](O)[C@@H](O)CO [xylitol] | – | superior to the other substances tested | – | best results | – | superior to the other test substances | superior to the other test substances | retarded | – | – | caused diarrhea | increased drinking water intake | more effective than sorbitol | dramatic reduction in the incidence of dental caries | appreciably more effective |
